# Laboratory results: patent US9145372B2, “Pyridazine derivatives, compositions and methods for treating cognitive impairment” (AGENEBIO, INC., priority 2010, dated 2015)
# “Also recorded” adds a separate entry of the source.
# Assays:
# [1] = biological target: T1, GABAA α5β3γ2 subtype receptor (Homo sapiens, UniProt P18507+P31644); assay: GABA-gated Cl- current potentiation in Xenopus oocytes expressing GABAA α5β3γ2 (TEVC); type: cell-based; settings: for activation at 1 µM: read-out: GABA α5 EC50 % potentiation; for positive allosteric modulation of GABA at GABAA α5 receptors: concentration response 0.01-100 μM, FIGS. 1(A)-(D)
# T1 construct: myc-His (vector-encoded); expressed in transfected cells; host or cells: Xenopus laevis oocytes injected with cDNAs
# T1 sequence (P31644 32-462): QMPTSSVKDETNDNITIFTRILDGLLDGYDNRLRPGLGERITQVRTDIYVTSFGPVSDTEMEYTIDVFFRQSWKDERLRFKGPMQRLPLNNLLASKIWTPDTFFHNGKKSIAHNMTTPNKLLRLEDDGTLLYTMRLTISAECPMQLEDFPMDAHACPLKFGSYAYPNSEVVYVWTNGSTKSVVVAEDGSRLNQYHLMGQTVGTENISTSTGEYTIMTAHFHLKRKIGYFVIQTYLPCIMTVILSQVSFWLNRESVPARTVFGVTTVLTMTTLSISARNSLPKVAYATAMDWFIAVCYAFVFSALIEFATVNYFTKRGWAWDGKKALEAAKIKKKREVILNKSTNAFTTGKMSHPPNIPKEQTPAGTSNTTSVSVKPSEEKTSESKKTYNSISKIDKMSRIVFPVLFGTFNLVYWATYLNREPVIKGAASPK
# T1 sequence (P28472 26-473 partner): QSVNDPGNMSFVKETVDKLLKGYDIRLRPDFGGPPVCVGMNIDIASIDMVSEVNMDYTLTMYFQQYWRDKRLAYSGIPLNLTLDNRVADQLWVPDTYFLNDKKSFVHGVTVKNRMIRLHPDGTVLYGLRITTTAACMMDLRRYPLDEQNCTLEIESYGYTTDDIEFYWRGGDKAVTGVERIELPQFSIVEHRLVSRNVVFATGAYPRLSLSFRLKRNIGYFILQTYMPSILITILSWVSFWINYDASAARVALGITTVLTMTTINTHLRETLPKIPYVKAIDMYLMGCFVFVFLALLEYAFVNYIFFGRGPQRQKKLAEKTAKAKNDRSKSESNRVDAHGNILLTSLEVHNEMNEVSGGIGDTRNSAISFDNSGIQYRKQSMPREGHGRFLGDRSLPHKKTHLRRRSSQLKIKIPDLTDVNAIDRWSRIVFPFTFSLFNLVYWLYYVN
# T1 sequence (P18507 40-467 limits assumed): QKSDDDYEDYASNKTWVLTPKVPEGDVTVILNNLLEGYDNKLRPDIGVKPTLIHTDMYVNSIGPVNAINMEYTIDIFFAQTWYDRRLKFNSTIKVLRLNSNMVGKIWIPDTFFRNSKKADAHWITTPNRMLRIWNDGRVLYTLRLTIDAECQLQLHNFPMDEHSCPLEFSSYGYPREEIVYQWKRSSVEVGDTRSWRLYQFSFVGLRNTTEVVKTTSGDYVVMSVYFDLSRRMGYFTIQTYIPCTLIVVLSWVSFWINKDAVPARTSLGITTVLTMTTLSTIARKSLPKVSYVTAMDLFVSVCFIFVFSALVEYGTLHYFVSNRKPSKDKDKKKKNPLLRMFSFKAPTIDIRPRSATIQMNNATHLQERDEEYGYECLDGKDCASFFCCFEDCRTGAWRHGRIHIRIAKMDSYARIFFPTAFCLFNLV
# Description: (§1) Step 1: Establish Clones of GABAAR Subunits (α5, β3, γ2, α1, α2 and α3) and Prepare the Corresponding cRNAs: Human clones of GABAA-R α5, β3, γ2, α1, α2 and α3 subunits are obtained from commercial resources (e.g., OriGene, http://www.origene.com and Genescript, http://www.genescript.com). These clones are engineered into pRC, pCDM, pcDNA, and pBluescript KSM vector (for oocyte expression) or other equivalent expression vectors. Conventional transfection agents (e.g., FuGene, Lipofectamine 2000, or others) are used to transiently transfect host cells.
# Adult female Xenopus laevis frogs were purchased from Nasco (Fort Atkinson, Wis.). […] All chemicals used were of reagent grade. […] Stock solutions of Diazepam, Flumazenil and compounds of the present invention were prepared in dimethyl sulfoxide (DMSO) and then diluted to an appropriate concentration with the extracellular solution just before use. To avoid adverse effects from DMSO exposure, the final concentration of DMSO was not higher than 0.3% (v/v).
# Upon conclusion of compound testing and successful washout, a 1.0 μM Diazepam was tested and used for comparative activity on the two GABAAR subtypes.
# Other concentrations of the test compound may also be tested following the same protocol.
# Results are expressed as mean±SEM.
# [2] = biological target: GABAA α5 receptor (Rattus norvegicus, UniProt P18508+P19969); assay: GABAA α5 receptor occupancy in vivo with Ro 15-4513 tracer (hippocampus vs cerebellum); settings: tracer 1 μg/kg, i.v., after vehicle administration
# GABAA α5 receptor, sequence (P19969 32-464 limits assumed): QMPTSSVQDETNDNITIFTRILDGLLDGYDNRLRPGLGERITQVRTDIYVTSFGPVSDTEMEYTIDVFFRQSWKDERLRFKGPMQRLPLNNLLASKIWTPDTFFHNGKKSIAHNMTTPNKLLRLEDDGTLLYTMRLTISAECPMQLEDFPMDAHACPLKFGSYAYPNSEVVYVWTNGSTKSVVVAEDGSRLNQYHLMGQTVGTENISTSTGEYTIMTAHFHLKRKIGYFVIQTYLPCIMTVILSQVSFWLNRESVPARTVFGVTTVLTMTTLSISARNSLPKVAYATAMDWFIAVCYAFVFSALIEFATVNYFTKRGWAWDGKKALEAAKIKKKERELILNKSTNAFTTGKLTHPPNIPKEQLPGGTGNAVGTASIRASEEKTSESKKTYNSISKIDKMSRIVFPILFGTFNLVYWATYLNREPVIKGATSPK
# GABAA α5 receptor, sequence (P18508 39-466): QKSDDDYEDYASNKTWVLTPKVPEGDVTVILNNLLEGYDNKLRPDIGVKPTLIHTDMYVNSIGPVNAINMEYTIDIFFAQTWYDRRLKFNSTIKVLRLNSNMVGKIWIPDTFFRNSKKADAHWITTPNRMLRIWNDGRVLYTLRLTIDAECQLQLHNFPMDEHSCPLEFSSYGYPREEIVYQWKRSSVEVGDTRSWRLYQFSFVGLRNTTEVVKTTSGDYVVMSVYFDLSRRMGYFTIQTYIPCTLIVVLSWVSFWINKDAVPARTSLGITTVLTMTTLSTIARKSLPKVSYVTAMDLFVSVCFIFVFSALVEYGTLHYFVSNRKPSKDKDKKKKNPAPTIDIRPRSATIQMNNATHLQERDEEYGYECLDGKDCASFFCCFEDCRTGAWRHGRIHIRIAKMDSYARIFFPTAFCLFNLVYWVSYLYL
# GABAA α5 receptor, sequence (P63079 26-473 partner): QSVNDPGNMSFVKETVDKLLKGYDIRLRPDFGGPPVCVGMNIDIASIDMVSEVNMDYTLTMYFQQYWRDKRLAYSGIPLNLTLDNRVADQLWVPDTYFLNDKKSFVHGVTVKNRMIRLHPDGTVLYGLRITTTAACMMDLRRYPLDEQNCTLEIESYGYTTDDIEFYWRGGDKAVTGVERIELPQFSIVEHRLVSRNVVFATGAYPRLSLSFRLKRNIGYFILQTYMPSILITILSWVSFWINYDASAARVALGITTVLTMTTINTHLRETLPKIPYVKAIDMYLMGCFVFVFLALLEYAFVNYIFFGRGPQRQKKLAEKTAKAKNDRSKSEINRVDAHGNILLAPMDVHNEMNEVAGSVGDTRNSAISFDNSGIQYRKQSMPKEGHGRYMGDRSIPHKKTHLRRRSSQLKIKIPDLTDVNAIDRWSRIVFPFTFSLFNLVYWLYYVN
# Description: Adult male Long Evans rats (265-295 g, Charles River, Portage, Mich., n=4/group) were used for GABAA α5 receptor occupancy studies. Rats were individually housed in ventilated stainless-steel racks on a 12:12 light/dark cycle. Food and water were available ad libitum.
# Ro 15-4513 was used as a receptor occupancy (RO) tracer for GABAA α5 receptor sites in the hippocampus and cerebellum. Ro 15-4513 was chosen as the tracer based on its selectivity for GABAA α5 receptors relative to other alpha subunit containing GABAA receptors and because it has been successfully used for GABAA α5 RO studies in animals and humans (see, e.g., Lingford-Hughes et al., J. Cereb. Blood Flow Metab. 22:878-89 (2002); Pym et al, Br. J. Pharmacol. 146: 817-825 (2005); and Maeda et al., Synapse 47: 200-208 (2003)). Ro 15-4513 (1 μg/kg), was dissolved in 25% hydroxyl-propyl beta-cyclodextrin and administered i.v. 20′ prior to the RO evaluations. Methyl 3,5-diphenylpyridazine-4-carboxylate (0.1-10 mg/kg) was synthesized by Nox Pharmaceuticals (India) and was dissolved in 25% hydroxyl-propyl beta-cyclodextrin and administered i.v. 15′ prior to tracer injection.
# The rats were sacrificed by cervical dislocation 20′ post tracer injection. The whole brain was rapidly removed, and lightly rinsed with sterile water. Trunk blood was collected in EDTA coated eppendorf tubes and stored on wet ice until study completion. Hippocampus and cerebellum were dissected and stored in 1.5 ml eppendorf tubes, and placed on wet ice until tissue extraction. In a drug naïve rat, six cortical brain tissues samples were collected for use in generating blank and standard curve samples.
# Acetonitrile containing 0.1% formic acid was added to each sample at a volume of four times the weight of the tissue sample. For the standard curve (0.1-30 ng/g) samples, a calculated volume of standard reduced the volume of acetonitrile. The sample was homogenized (FastPrep-24, Lysing Matrix D; 5.5 m/s, for 60 seconds or 7-8 watts power using sonic probe dismembrator; Fisher Scientific) and centrifuged for 16-minutes at 14,000 rpm. The (100 μl) supernatant solution was diluted by 300 μl of sterile water (pH 6.5). This solution was then mixed thoroughly and analyzed via LC/MS/MS for […] (tracer) and methyl 3,5-diphenylpyridazine-4-carboxylate.
# Receptor occupancy was determined by the ratio method which compared occupancy in the hippocampus (a region of high GABAA α5 receptor density) with occupancy in the cerebellum (a region with low GABAA α5 receptor density) and additionally by a high dose of the GABAA α5 negative allosteric modulator L-655,708 (10 mg/kg, i.v.) to define full occupancy.
# [3] = biological target: T2, GABAA α1 receptors (α1β2γ2) (Homo sapiens, UniProt P14867+P18507); assay: GABA-gated Cl- current in Xenopus oocytes expressing GABAA α1β2γ2 (TEVC), off-target activity; type: cell-based; settings: concentration response 0.01-100 μM; FIGS. 1(A)-(D)
# T2 construct: expressed in transfected cells; host or cells: Xenopus laevis oocytes injected with cDNAs
# T2 sequence (P14867 28-456): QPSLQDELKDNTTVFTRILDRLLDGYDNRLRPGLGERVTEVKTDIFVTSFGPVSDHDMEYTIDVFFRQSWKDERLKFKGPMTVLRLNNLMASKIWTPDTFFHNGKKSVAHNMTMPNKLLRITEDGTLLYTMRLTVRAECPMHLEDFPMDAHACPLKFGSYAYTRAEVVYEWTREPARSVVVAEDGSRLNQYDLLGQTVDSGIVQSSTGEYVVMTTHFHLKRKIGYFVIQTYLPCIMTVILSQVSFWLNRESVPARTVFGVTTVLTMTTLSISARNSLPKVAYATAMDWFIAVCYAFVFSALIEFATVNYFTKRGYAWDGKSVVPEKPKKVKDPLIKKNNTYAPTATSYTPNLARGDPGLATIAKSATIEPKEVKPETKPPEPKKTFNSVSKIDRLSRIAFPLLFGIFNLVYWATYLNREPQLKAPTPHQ
# T2 sequence (P47870 25-512 partner limits assumed): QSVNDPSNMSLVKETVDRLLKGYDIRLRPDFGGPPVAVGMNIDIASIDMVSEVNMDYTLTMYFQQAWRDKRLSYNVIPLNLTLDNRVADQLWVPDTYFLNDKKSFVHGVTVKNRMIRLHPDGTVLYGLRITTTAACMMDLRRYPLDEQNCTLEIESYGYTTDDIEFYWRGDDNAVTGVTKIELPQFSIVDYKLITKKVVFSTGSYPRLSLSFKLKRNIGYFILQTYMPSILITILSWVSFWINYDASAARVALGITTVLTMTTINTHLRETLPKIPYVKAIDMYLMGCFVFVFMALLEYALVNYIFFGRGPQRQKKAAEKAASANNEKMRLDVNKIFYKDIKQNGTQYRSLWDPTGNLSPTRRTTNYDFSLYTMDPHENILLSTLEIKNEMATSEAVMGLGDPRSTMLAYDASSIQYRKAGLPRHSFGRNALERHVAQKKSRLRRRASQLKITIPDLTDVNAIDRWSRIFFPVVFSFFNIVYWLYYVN
# T2 sequence (P18507 40-467 limits assumed): T1 sequence (P18507 40-467 limits assumed)
# Description: as §1
# Xenopus oocytes were isolated according to previously published procedures (see, e.g., Goldin et al. Methods Enzymol. 207:266-279 (1992)). The isolated Xenopus oocytes were injected with GABAAR cDNAs (1:1:1 ratio for a total volume of 1 ng of α1βγ2 or α5β3γ2) cloned into mammalian expression vectors. In particular, α1, β2, γ2 were cloned into pcDNA3.1. and α5 and β3 were cloned into pcDNA3.1 myc-His. Vectors were verified by partial sequencing (DNA Core Facility, University of Southern California, USA). After injection, oocytes were stored in incubation medium (Modified Barth's Saline (MBS) supplemented with 2 mM sodium pyruvate, 0.5 mM theophylline and 50 mg/L gentamycin), in petri dishes (VWR, San Dimas, Calif.). All solutions were sterilized by passage through 0.22 μM filters. […] Oocytes were used in experiments for up to 5 days after injection.
# A high-throughput two-electrode voltage clamp (TEVC) system (OpusXpress A6000; Molecular Devices, Union City, Calif.), which automates the impalement of oocytes, fluid delivery and current recording from 8 oocytes in parallel, was used to carry out all electrophysiological recordings.
# Xenopus Oocytes expressing GABAA-R α5β3γ2 or α1β2γ2 subtype, as prepared in section (A) above, were placed in 8 chambers of OpusXpress and perfused by MBS at 3 mL/min. Glass electrodes back-filled with 3 M KCl (0.5-3 megaohms) were used. Membrane potential of oocytes was voltage-clamped at −60 mV. Oocytes with holding current larger than 0.5 μA were discarded.
# Data for each experimental point were obtained from 4 or more Xenopus oocytes and from at least two different frogs. The n refers to the number of Xenopus oocytes tested. Results are expressed as mean±SEM. […] Prism (GraphPAD Software, San Diego, Calif.) and Excel were used to perform curve fitting and statistical analyses.
Compound,activation at 1 µM [1],positive allosteric modulation of GABA at GABAA α5 receptors [1],levels of Ro 15-4513 in hippocampus compared with cerebellum [2],positive allosteric modulation at GABAA α1 receptors [3]
NC(=O)c1c(-c2ccccc2)cnnc1-c1ccccc1 [Compound 3],11.1%,–,–,–
CCOC(=O)c1ncn2c1CN(C)C(=O)c1cc(N=[N+]=[N-])ccc1-2 [Ro 15-4513],–,–,> 5 fold,–
"CC1COC(c2c(-c3ccccc3)cnnc2-c2ccccc2)=N1 (centres unmarked) [Compound 21, 2-(3,5-diphenylpyridazin-4-yl)-4-methyl-4,5-dihydrooxazole]",5.3%,–,–,–
COc1cccc(-c2nncc(-c3ccccc3)c2-c2nc(C)co2)c1 [Compound 24],6%,–,–,–
CN(C)C(=O)c1c(-c2ccccc2)cnnc1-c1ccccc1 [Compound 4],42%,strong positive allosteric modulation,–,markedly reduced positive allosteric modulation
COC(=O)c1coc(-c2c(-c3ccccc3)cnnc2-c2cccc(OC)c2)n1 [Compound 29],12.3%,strong positive allosteric modulation,–,markedly reduced positive allosteric modulation
"COC(=O)c1coc(-c2c(-c3ccccc3)cnnc2-c2ccccc2)n1 [Compound 26, Methyl 2-(3,5-diphenylpyridazin-4-yl)oxazole-4-carboxylate]",15.8%,strong positive allosteric modulation,–,markedly reduced positive allosteric modulation; also recorded: no evidence of activity
COc1cccc(-c2nncc(-c3ccccc3)c2C(=O)O)c1 [Compound 11],19.2%,–,–,–

# Second part, led by results:
activation at 1 µM [1],positive allosteric modulation of GABA at GABAA α5 receptors [1],Compound,levels of Ro 15-4513 in hippocampus compared with cerebellum [2],positive allosteric modulation at GABAA α1 receptors [3]
8.5%,–,"CNC(=O)c1c(-c2ccccc2)cnnc1-c1ccccc1 [Compound 1, N-methyl-3,5-diphenylpyridazine-4-carboxamide]",–,–
10%,–,O=C(NCc1ccccc1)c1c(-c2ccccc2)cnnc1-c1ccccc1 [Compound 9],–,–
8.2%,–,CC(C)NC(=O)c1c(-c2ccccc2)cnnc1-c1ccccc1 [Compound 2],–,–
4.6%,–,O=C(c1c(-c2ccccc2)cnnc1-c1ccccc1)N(Cc1ccccc1)Cc1ccccc1 [Compound 5],–,–
8.6%,–,"COC(=O)C1COC(c2c(-c3ccccc3)cnnc2-c2ccccc2)=N1 (centres unmarked) [Compound 25, Methyl 2-(3,5-diphenylpyridazin-4-yl)-4,5-dihydrooxazole-4-carboxylate]",–,–
8.6%,–,"CCc1coc(-c2c(-c3ccccc3)cnnc2-c2ccccc2)n1 [Compound 22, 2-(3,5-diphenylpyridazin-4-yl)-4-ethyloxazole]",–,–
